Source: patent publication US10723741B1, “DNA polymerase IIIC inhibitors and use thereof” (Acurx Pharmaceuticals, LLC, priority 2018, dated 2020)
In brackets after ≈: the same amount, converted by molar mass. Read-outs that look alike come from different tables or passages of the source.

Columns and labels:
Format in all cases: cell-based
[1] = system: Escherichia coli ATCC 25922; experiment: Broth microdilution MIC, E. coli ATCC 25922 (MHIIB w & w/o 4 mM EDTA); conditions: broth microdilution, 37° C., 20 hours; for MIC: Escherichia coli, ATCC25922, without EDTA, read-out: MIC E. coli ATCC 25922; for MIC E. coli ATCC 25922 + 4 mM EDTA: with 4 mM EDTA
Procedure, shortened: (§1)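 Two-fold dilutions from 64 to 0.0625 μg/ml final, 1% DMSO, were inoculated at ~5.0×10^5 cfu/ml in the strain's test medium and kept 20 h at 37 °C in ambient atmosphere. Colonies were grown on MHA, with S. pneumoniae on blood agar under 5% CO2.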

[2] = system: Enterococcus faecium ATCC 700221 (VRE); experiment: Broth microdilution MIC, E. faecium ATCC 700221 (VRE); parameters: MIC E. faecium ATCC 700221 (VRE): unit: ug/mL; conditions: broth microdilution, 37° C., 20 hours; for MIC: Enterococcus faecium
Procedure, shortened: as §1

[3] = system: Streptococcus pneumoniae ATCC 49619; experiment: Broth microdilution MIC, S. pneumoniae ATCC 49619; conditions: ATCC49619, broth microdilution, 37° C., 20 hours, read-out: MIC S. pneumoniae ATCC 49619
Procedure, shortened: as §1

[4] = system: Staphylococcus aureus NRS384 (MRSA); experiment: Broth microdilution MIC, S. aureus NRS384 (MRSA); parameters: MIC NRS 384 (MRSA): unit not given here; conditions: broth microdilution, 37° C., 20 hours; for MIC: Staphylococcus aureus
Procedure, shortened: as §1

[5] = system: Staphylococcus aureus ATCC 29213 (MSSA); experiment: Broth microdilution MIC, S. aureus ATCC 29213 (MSSA); conditions: broth microdilution, 37° C., 20 hours, read-out: MIC S. aureus ATCC 29213 (MSSA)
Procedure, shortened: as §1

[6] = system: Bacillus subtilis ATCC 6633; experiment: Broth microdilution MIC, B. subtilis ATCC 6633; conditions: ATCC6633, broth microdilution, 37° C., 20 hours, read-out: MIC B. subtilis ATCC 6633
Procedure, shortened: as §1

[7] = system: Enterococcus faecalis ATCC 29212; experiment: Broth microdilution MIC, E. faecalis ATCC 29212; conditions: ATCC29212, broth microdilution, 37° C., 20 hours, read-out: MIC E. faecalis ATCC 29212
Procedure, shortened: as §1

[8] = read-out: MIC E. faecium ATCC 700221 (VRE)

| SMILES | MIC [1] | MIC E. coli ATCC 25922 + 4 mM EDTA [1] | MIC [2, 8] | MIC [3] | MIC ([4]; read-out: MIC NRS 384 (MRSA)) | MIC [5] | MIC [6] | MIC [7] | MIC E. faecium ATCC 700221 (VRE) [2] | MIC NRS 384 (MRSA) [4] | MIC ([2]; MHIIB, read-out: MIC against E. faecium ATCC 700221 (VRE)) | MIC ([4]; MHIIB, read-out: MIC against S. aureus NRS 384 (MRSA)) |
| --- | --- | --- | --- | --- | --- | --- | --- | --- | --- | --- | --- | --- |
| Cn1ncc2nc(Nc3ccc4c(c3)COC4)[nH]c(=O)c21 [Compound 39, 5-((1,3-Dihydroisobenzofuran-5-yl)amino)-1-methyl-1H-pyrazolo[4,3-d]pyrimidin-7(6H)-one] | > 64 µg/mL | >64 µg/mL | > 64 µg/mL | > 64 µg/mL | > 64 µg/mL | > 64 µg/mL | > 64 µg/mL | > 64 µg/mL | – | – | – | – |
| COC(=O)c1nn(C)c2c(=O)[nH]c(NCc3ccc(Cl)c(Cl)c3)nc12 [Compound 40, Methyl 5-((3,4-dichlorobenzyl)amino)-1-methyl-7-oxo-6,7-dihydro-1H-pyrazolo[4,3-d]pyrimidine-3-carboxylate] | > 64 µg/mL | >64 µg/mL | > 64 µg/mL | > 64 µg/mL | > 64 µg/mL | > 64 µg/mL | > 64 µg/mL | > 64 µg/mL | – | – | – | – |
| Cn1nc(C(=O)O)c2nc(NCc3ccc(Cl)c(Cl)c3)[nH]c(=O)c21 [Compound 41, 5-((3,4-dichlorobenzyl)amino)-1-methyl-7-oxo-6,7-dihydro-1H-pyrazolo[4,3-d]pyrimidine-3-carboxylic acid] | > 64 µg/mL | >64. ug/ml | > 64 µg/mL | > 64 µg/mL | > 64 µg/mL | > 64 µg/mL | > 64 µg/mL | > 64 µg/mL | – | – | – | – |
| CNC(=O)c1nn(C)c2c(=O)[nH]c(NCc3ccc(Cl)c(Cl)c3)nc12 [Compound 42, 5-((3,4-dichlorobenzyl)amino)-N, 1-dimethyl-7-oxo-6,7-dihydro-1H-pyrazolo[4,3-d]pyrimidine-3-carboxamide] | > 64 µg/mL | >64 µg/mL | > 64 µg/mL | > 64 µg/mL | > 64 µg/mL | > 64 µg/mL | > 64 µg/mL | > 64 µg/mL | – | – | – | – |
| CN(C)C(=O)c1nn(C)c2c(=O)[nH]c(NCc3ccc(Cl)c(Cl)c3)nc12 [Compound 43, 5-((3,4-Dichlorobenzyl)amino)-N,N, 1-trimethyl-7-oxo-6,7-dihydro-1H-pyrazolo[4,3-d]pyrimidine-3-carboxamide] | > 64 µg/mL | >64 µg/mL | > 64 µg/mL | 64 µg/mL (≈ 162 µM) | > 64 µg/mL | > 64 µg/mL | 64 µg/mL (≈ 162 µM) | > 64 µg/mL | – | – | – | – |
| Cn1nc(C#N)c2nc(NCc3ccc(Cl)c(Cl)c3)[nH]c(=O)c21 [Compound 45, 5-((3,4-dichlorobenzyl)amino)-1-methyl-7-oxo-6,7-dihydro-1H-pyrazolo[4,3-d]pyrimidine-3-carbonitrile] | > 64 µg/mL | 64 µg/mL | – | 16 µg/mL (≈ 45.8 µM) | – | 4 µg/mL (≈ 11.5 µM) | 2 µg/mL (≈ 5.73 µM) | 4 µg/mL (≈ 11.5 µM) | 2/2 | 4/4 | – | – |
| Cn1nc(C2C=CCO2)c2nc(NCc3ccc(Cl)c(Cl)c3)[nH]c(=O)c21 (centres unmarked) [Compound 46, 5-((3,4-dichlorobenzyl)amino)-3-(2,5-dihydrofuran-2-yl)-1-methyl-1H-pyrazolo[4,3-d]pyrimidin-7(6H)-one] | > 64 µg/mL | >64 µg/mL | 8 µg/mL (≈ 20.4 µM) | 16 µg/mL (≈ 40.8 µM) | 8 µg/mL (≈ 20.4 µM) | 4 µg/mL (≈ 10.2 µM) | 4 µg/mL (≈ 10.2 µM) | 16 µg/mL (≈ 40.8 µM) | – | – | – | – |
| Cn1nc(C2CCCO2)c2nc(NCc3ccc(Cl)c(Cl)c3)[nH]c(=O)c21 (centres unmarked) [Compound 47, 5-((3,4-dichlorobenzyl)amino)-1-methyl-3-(tetrahydrofuran-2-yl)-1H-pyrazolo[4,3-d]pyrimidin-7(6H)-one] | > 64 µg/mL | >64 µg/mL | 16 µg/mL (≈ 40.6 µM) | 32 µg/mL (≈ 81.2 µM) | 16 µg/mL (≈ 40.6 µM) | 16 µg/mL (≈ 40.6 µM) | 8 µg/mL (≈ 20.3 µM) | > 64 µg/mL | – | – | – | – |
| Cn1nc(CCO)c2nc(NCc3ccc(Cl)c(Cl)c3)[nH]c(=O)c21 [Compound 48, 5-((3,4-dichlorobenzyl)amino)-3-(2-hydroxyethyl)-1-methyl-1H-pyrazolo[4,3-d]pyrimidin-7(6H)-one] | > 64 µg/mL | >64 µg/mL | 8 µg/mL (≈ 21.7 µM) | 4 µg/mL (≈ 10.9 µM) | 4 µg/mL (≈ 10.9 µM) | 8 µg/mL (≈ 21.7 µM) | 4 µg/mL (≈ 10.9 µM) | 16 µg/mL (≈ 43.5 µM) | – | – | – | – |
| CCOCCc1nn(C)c2c(=O)[nH]c(NCc3ccc(Cl)c(Cl)c3)nc12 [Compound 49, 5-((3,4-dichlorobenzyl)amino)-3-(2-ethoxyethyl)-1-methyl-1H-pyrazolo[4,3-d]pyrimidin-7(6H)-one] | > 64 µg/mL | >64 µg/mL | 16 µg/mL (≈ 40.4 µM) | 16 µg/mL (≈ 40.4 µM) | 8 µg/mL (≈ 20.2 µM) | 16 µg/mL (≈ 40.4 µM) | 8 µg/mL (≈ 20.2 µM) | > 64 µg/mL | – | – | – | – |
| O=c1[nH]c(NCc2ccc(Cl)c(Cl)c2)nc2c(-c3ncco3)nn(CCOCCO)c12 [Compound 50, 5-((3,4-dichlorobenzyl)amino)-1-(2-(2-hydroxyethoxy)ethyl)-3-(oxazol-2-yl)-1H-pyrazolo[4,3-d]pyrimidin-7(6H)-one] | > 64 µg/mL | >64 µg/mL | > 64 µg/mL | > 64 µg/mL | > 64 µg/mL | > 64 µg/mL | > 64 µg/mL | > 64 µg/mL | – | – | – | – |
| N#Cc1nn(CCOCCO)c2c(=O)[nH]c(NCc3ccc(Cl)c(Cl)c3)nc12 [Compound 51, 5-((3,4-dichlorobenzyl)amino)-1-(2-(2-hydroxyethoxy)ethyl)-7-oxo-6,7-dihydro-1H-pyrazolo[4,3-d]pyrimidine-3-carbonitrile] | > 64 µg/mL | >64 µg/mL | 0.5 µg/mL (≈ 1.18 µM) | 2 µg/mL (≈ 4.73 µM) | 2 µg/mL (≈ 4.73 µM) | 2 µg/mL (≈ 4.73 µM) | 1 µg/mL (≈ 2.36 µM) | 2 µg/mL (≈ 4.73 µM) | – | – | – | – |
| O=c1[nH]c(NCc2ccc(Cl)c(Cl)c2)nc2c(Br)nn(CCOCCO)c12 [Compound 52, 3-bromo-5-((3,4-dichlorobenzyl)amino)-1-(2-(2-hydroxyethoxy)ethyl)-1H-pyrazolo[4,3-d]pyrimidin-7(6H)-one] | > 64 µg/mL | >64 µg/mL | 2 µg/mL (≈ 4.19 µM) | 16 µg/mL (≈ 33.5 µM) | 4 µg/mL (≈ 8.38 µM) | 2 µg/mL (≈ 4.19 µM) | 1 µg/mL (≈ 2.1 µM) | 4 µg/mL (≈ 8.38 µM) | – | – | – | – |
| Cn1nc(F)c2nc(NCc3ccc(Cl)c(Cl)c3)[nH]c(=O)c21 [Compound 53, 5-((3,4-dichlorobenzyl)amino)-3-fluoro-1-methyl-1H-pyrazolo[4,3-d]pyrimidin-7(6H)-one] | > 64 µg/mL | 64 µg/mL | 0.5 µg/mL (≈ 1.46 µM) | 2 µg/mL (≈ 5.85 µM) | 0.5 µg/mL (≈ 1.46 µM) | 0.5 µg/mL (≈ 1.46 µM) | 0.5 µg/mL (≈ 1.46 µM) | 2 µg/mL (≈ 5.85 µM) | – | – | ≤ 1 µg/mL | ≤ 1 µg/mL |
| O=c1[nH]c(NCc2ccc(Cl)c(Cl)c2)nc2c(F)n[nH]c12 [Compound 54, 5-[(3,4-Dichlorophenyl)methylamino]-3-fluoro-1,6-dihydropyrazolo[4,3-d]pyrimidin-7-one] | > 64 µg/mL | >64 µg/mL | 4 µg/mL (≈ 12.2 µM) | 32 µg/mL (≈ 97.5 µM) | 8 µg/mL (≈ 24.4 µM) | 8 µg/mL (≈ 24.4 µM) | 4 µg/mL (≈ 12.2 µM) | 16 µg/mL (≈ 48.8 µM) | – | – | – | – |
